Results on two compounds are retold here after ChEMBL document CHEMBL1287678, “5-{2-[4-(2-methyl-5-quinolinyl)-1-piperazinyl]ethyl}-2(1H)-quinolinones and 3,4-dihydro-2(1H)-quinolinones: dual-acting 5-HT1 receptor antagonists and serotonin reuptake inhibitors. Part 3” (Bioorg Med Chem Lett, 2010).

Data set [1] has as its target T1, 5-hydroxytryptamine receptor 1A (Homo sapiens, UniProt P08908).
T1 sequence (P08908 whole entry): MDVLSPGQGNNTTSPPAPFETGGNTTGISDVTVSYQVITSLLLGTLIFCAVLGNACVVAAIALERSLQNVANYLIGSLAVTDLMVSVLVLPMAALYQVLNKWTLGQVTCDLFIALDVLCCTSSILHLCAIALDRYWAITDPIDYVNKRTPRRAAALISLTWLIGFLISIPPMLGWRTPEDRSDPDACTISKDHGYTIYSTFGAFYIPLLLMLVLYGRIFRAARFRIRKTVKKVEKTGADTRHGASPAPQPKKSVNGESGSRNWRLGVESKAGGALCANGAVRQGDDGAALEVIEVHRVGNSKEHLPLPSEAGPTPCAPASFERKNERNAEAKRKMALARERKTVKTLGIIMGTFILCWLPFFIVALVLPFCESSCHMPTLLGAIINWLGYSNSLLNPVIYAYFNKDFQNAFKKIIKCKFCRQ
Put plainly: Antagonist activity at human 5-HT1A receptor expressed in HEK293 cells assessed as inhibition of GTPgammaS binding by scintillation proximity assay. The format is functional, cell-based.

Data set [2] deals with T2, 5-hydroxytryptamine receptor 1B (Homo sapiens, UniProt P28222). Kind of data set: Agonist activity at human 5-HT1B receptor expressed in CHO cells assessed as stimulation of GTPgammaS binding by scintillation proximity assay. The format is functional, cell-based.
T2 sequence (P28222 whole entry): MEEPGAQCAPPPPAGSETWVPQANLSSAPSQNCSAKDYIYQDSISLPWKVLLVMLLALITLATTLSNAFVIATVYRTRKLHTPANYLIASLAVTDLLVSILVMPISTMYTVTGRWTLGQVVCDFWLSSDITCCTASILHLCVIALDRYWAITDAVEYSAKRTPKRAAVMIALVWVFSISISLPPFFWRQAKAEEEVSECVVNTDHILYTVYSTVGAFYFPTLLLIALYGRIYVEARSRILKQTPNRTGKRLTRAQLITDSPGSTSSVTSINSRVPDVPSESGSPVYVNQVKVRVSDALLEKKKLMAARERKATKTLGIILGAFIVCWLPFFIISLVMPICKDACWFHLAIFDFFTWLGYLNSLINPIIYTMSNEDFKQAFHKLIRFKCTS
Data set [3] has as its target T3, 5-hydroxytryptamine receptor 1D (Homo sapiens, UniProt P28221). Kind of data set: Agonist activity at human 5-HT1D receptor expressed in CHO cells assessed as stimulation of GTPgammaS binding by scintillation proximity assay. It counts as functional, cell-based.
Data set [4] concerns the target Sodium-dependent serotonin transporter (Homo sapiens, UniProt P31645). Kind of data set: Displacement of [3H]-citalopram in human SERT expressed in LLCPK cells by filtration assay. The format is cell-based.
The target in data set [5] is Voltage-gated inwardly rectifying potassium channel KCNH2 (Homo sapiens, UniProt Q12809). Kind of data set: Displacement of [3H]-dofetilide in human hERG expressed in CHO cells by proximity assay. The format is cell-based.
Chain of Voltage-gated inwardly rectifying potassium channel KCNH2 (Q12809 whole entry): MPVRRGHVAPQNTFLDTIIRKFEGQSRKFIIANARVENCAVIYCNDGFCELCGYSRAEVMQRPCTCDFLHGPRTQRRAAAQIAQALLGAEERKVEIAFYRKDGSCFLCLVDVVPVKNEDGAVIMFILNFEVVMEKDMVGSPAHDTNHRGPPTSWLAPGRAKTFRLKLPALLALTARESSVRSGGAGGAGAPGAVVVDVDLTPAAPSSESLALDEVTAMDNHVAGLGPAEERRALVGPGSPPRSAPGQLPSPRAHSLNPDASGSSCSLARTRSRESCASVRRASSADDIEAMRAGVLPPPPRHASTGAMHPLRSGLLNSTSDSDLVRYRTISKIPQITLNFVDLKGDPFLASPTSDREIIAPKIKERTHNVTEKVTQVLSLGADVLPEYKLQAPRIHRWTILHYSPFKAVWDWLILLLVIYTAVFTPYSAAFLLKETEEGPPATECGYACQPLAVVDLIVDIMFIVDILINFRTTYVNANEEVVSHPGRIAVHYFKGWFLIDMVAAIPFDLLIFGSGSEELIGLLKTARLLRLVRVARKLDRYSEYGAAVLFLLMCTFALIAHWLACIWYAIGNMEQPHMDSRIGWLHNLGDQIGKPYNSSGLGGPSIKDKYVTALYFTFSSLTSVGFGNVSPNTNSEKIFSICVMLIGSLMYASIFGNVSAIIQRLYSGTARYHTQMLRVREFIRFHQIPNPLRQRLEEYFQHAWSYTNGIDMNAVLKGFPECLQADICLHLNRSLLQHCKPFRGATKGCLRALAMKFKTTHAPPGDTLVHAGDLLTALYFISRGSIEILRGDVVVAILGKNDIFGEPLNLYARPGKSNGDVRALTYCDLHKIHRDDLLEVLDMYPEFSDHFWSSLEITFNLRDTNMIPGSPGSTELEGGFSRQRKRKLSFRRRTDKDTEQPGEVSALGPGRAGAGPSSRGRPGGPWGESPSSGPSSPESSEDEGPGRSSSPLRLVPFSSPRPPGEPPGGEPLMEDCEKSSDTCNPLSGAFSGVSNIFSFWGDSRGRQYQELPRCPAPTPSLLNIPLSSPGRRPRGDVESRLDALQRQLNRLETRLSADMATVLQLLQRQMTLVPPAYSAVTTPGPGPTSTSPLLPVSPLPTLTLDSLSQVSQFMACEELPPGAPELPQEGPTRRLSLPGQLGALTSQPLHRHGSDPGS
The next data set deals with Liver microsomes. Kind of data set: Intrinsic clearance in human liver microsomes. The format is ADME, Microsome.
Data set [6] in a line: Blood clearance in rat at 0.5 mg/kg, iv and 1 mg/kg, po. The format is ADME, organism-based. Particulars: whole blood.
The nature of data set [7]: Volume of distribution at steady state in rat at 0.5 mg/kg, iv and 1 mg/kg, po. The format is ADME, organism-based. Particulars: in vivo, read-out: Vdss.
Data set [8] in a line: Half life in rat at 0.5 mg/kg, iv and 1 mg/kg, po. It counts as ADME, organism-based. The note with it: in vivo.
Data set [9] is described as follows: Oral bioavailability in rat at 1 mg/kg. The format is ADME, organism-based. Particulars: in vivo.
The nature of data set [10]: Ratio of drug level in brain to blood in rat at 0.5 mg/kg, iv and 1 mg/kg, po. The format is ADME, organism-based. Particulars: brain / whole blood.
The target in data set [11] is T4, 5-hydroxytryptamine receptor 1A (Homo sapiens) (UniProt P08908).
T4 sequence (whole entry): T1 sequence (P08908 whole entry)
Put plainly: Intrinsic activity at human 5-HT1A receptor expressed in HEK293 cells assessed as effect on GTPgammaS binding by scintillation proximity assay relative to 5HT. The format is functional, cell-based.

The target of data set [12] is T2, 5-hydroxytryptamine receptor 1B. Kind of data set: Intrinsic activity at human 5-HT1B receptor expressed in CHO cells assessed as effect on GTPgammaS binding by scintillation proximity assay relative to 5HT. It counts as functional, cell-based.
Data set [13] addresses T3, 5-hydroxytryptamine receptor 1D. Put plainly: Intrinsic activity at human 5-HT1D receptor expressed in CHO cells assessed as effect on GTPgammaS binding by scintillation proximity assay relative to 5HT. The format is functional, cell-based.
The target of data set [14] is T2, 5-hydroxytryptamine receptor 1B. Put plainly: Antagonist activity at human 5-HT1B receptor expressed in CHO cells assessed as inhibition of GTPgammaS binding by scintillation proximity assay. The format is functional, cell-based.
The target of data set [15] is T1, 5-hydroxytryptamine receptor 1A. Put plainly: Agonist activity at human 5-HT1A receptor expressed in HEK293 cells assessed as stimulation of GTPgammaS binding by scintillation proximity assay. The format is functional, cell-based.

Where only a bound is given, the exact number is not on record here.

T3 sequence (P28221 whole entry): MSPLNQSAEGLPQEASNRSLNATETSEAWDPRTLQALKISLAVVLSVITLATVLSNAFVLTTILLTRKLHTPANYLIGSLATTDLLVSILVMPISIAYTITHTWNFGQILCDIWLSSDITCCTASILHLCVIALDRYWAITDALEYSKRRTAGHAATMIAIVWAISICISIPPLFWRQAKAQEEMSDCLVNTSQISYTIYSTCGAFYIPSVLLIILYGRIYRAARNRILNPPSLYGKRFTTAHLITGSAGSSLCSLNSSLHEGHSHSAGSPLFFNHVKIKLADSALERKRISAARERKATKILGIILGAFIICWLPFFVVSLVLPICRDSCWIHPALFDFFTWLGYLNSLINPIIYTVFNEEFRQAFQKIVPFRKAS
Chain of Sodium-dependent serotonin transporter (P31645 whole entry): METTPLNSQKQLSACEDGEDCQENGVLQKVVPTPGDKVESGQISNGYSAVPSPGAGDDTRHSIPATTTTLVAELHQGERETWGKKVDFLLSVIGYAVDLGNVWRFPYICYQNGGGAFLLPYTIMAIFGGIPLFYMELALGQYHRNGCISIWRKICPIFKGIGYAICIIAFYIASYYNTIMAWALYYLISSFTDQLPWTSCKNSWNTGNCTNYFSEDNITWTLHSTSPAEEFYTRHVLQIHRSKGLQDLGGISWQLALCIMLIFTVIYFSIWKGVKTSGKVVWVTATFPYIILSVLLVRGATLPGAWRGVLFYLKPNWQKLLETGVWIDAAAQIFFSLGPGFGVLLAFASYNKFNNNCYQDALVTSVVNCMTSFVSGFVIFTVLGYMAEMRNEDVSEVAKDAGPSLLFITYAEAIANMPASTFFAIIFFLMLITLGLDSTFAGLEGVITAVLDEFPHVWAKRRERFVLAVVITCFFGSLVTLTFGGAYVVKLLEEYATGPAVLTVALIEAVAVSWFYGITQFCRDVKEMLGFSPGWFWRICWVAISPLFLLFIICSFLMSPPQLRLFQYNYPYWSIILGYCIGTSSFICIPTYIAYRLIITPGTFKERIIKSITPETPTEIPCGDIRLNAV

As to `Cc1ccc2c(N3CCN(CCc4c(C)ccc5c4CCC(=O)N5)CC3)cccc2n1`, the Ki is 0.794 nM in data set [1], 50.1 nM in [4] and 3980 nM in data set [5]. For the same compound, the EC50 is 200 nM in [2] and 5.01 nM in data set [3]. In the data set with Liver microsomes, this compound yielded a CL of less than 0.5 mL/min/g. In addition, the clearance in data set [6] turned out to be 7 mL/min/kg. In [7], the Vd stood at 3 L/kg. The compound also had a half-life in data set [8] of 5.4 h. The compound further showed a bioavailability in [9] of 73%. Also, the partition ratio (Kp) in [10] was found to be 0.8. The Intrinsic activity is 0.3 in data set [11], 0.4 in data set [12] and 0.5 in data set [13].

Turning to `Cc1ccc2c(N3CCN(CCc4cccc5c4ccc(=O)n5C)CC3)cccc2n1`, the Ki in [14] is 0.794 nM; in data set [4], 2.51 nM; in data set [5], 10000 nM. Besides, the EC50 in data set [15] is 0.0316 nM; in data set [3], 1 nM. Further, the CL with Liver microsomes came to 1.2 mL/min/g. In data set [6], the clearance was 32 mL/min/kg. Moreover, the Vd in data set [7] worked out at 2.1 L/kg. Besides, the half-life in [8] was 1.3 h. Further, in [9], the bioavailability was found to be 37%. The Kp in [10] was 1.1. For the same compound, the Intrinsic activity in data set [11] amounted to 0.4; in data set [12], 0; in [13] it was 0.7.
